Assay results as given in US9266871B2, “Trifluoromethyl-substituted fused pyrimidines and their use” (BAYER PHARMA AKTIENGESELLSCHAFT, priority 2013, dated 2016).

Molecular target: T1, recombinant guanylate cyclase reporter cell line (Rattus norvegicus, UniProt P19686+P20595)
T1 construct: expressed in transfected cells; host or cells: recombinant reporter cell line
T1 sequence (P19686 1-690): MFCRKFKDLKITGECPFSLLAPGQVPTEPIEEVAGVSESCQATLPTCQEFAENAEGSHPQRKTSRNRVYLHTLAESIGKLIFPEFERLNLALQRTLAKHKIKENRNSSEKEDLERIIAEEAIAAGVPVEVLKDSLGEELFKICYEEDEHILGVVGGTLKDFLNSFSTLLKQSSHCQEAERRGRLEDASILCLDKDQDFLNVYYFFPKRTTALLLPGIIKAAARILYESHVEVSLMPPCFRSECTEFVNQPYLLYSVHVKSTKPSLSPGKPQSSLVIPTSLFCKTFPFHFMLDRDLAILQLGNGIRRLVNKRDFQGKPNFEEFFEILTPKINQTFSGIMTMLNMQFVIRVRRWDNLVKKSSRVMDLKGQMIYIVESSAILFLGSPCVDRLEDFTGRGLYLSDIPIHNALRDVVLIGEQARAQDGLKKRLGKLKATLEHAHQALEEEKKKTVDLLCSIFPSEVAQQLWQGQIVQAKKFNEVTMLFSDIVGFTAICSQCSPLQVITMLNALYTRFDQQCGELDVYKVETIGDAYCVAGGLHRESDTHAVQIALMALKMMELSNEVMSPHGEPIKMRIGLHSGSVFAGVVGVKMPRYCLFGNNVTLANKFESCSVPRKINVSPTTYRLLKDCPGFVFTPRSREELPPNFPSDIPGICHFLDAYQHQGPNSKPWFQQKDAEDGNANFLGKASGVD
T1 sequence (P20595 1-619): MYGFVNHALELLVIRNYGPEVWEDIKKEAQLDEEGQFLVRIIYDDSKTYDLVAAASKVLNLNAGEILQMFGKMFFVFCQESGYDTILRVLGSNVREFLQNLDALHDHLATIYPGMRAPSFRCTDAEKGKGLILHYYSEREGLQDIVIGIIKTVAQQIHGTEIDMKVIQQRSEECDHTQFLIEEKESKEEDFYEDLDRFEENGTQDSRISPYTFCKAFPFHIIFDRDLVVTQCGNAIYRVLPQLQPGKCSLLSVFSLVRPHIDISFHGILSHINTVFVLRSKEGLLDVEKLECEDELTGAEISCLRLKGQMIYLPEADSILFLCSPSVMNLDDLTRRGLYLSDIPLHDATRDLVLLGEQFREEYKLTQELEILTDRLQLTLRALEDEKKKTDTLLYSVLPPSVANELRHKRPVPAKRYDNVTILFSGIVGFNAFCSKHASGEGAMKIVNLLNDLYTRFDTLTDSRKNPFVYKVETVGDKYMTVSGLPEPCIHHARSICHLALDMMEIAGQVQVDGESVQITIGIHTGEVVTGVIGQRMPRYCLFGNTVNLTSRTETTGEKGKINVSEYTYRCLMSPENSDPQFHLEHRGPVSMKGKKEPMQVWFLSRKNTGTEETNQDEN
Experiment: Effect on a recombinant guanylate cyclase reporter cell line
Format: cell-based
Experimental: B-2. Effect on a Recombinant Guanylate Cyclase Reporter Cell Line
The cellular activity of the compounds according to the invention is determined using a recombinant guanylate cyclase reporter cell line, as described in F. Wunder et al., Anal. Biochem. 339, 104-112 (2005).

`C[C@@]1(C(F)(F)F)C(=O)Nc2nc(-c3nn(Cc4ncccc4F)c4ncc(F)cc34)nc(NCCC(F)(F)F)c21` (single isomer, unassigned) [Example 1-1] was tested, and the “MEC (minimum effective concentration)” value was 0.1 µM.

`C[C@]1(C(F)(F)F)C(=O)Nc2nc(-c3nn(Cc4ncccc4F)c4ncc(F)cc34)nc(NCCC(F)(F)F)c21` (single isomer, unassigned) [Example 1-2] was tested, and the “MEC (minimum effective concentration)” value was 1.0 µM.
